The results in this text go back to patent publication US12637425B2, “Compounds and formulations for treating ophthalmic diseases” (Visus Therapeutics, Inc., priority 2020, dated 2026).

In the experiment the target is T1, Recombinant cryAB(R120G) protein (Homo sapiens, UniProt P02511, R120G).
T1 sequence (P02511 1-175 R120G): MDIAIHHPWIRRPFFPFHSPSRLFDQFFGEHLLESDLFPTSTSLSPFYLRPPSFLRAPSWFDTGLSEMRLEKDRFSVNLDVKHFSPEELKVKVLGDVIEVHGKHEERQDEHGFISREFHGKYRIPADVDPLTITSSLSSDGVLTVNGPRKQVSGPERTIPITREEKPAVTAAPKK
Briefly: Kinetic turbidity aggregation assay of recombinant cryAB(R120G). The format is biochemical. Particulars: for inhibition at 25 µM: 25 μM compound, read-out: % Inhibition of Protein Aggregation, 25 μM cmpd; for inhibition at 25 µM / inhibition at 100 µM: 15 μM cryAB(R120G), 42° C., absorbance at 550 nm; for inhibition at 100 µM: 100 μM compound, read-out: % Inhibition of Protein Aggregation, 100 μM cmpd; for IC50: inhibition of cryAB(R120G) protein aggregation. The protocol:
Example A-1: Kinetic Turbidity Aggregation Assay of Recombinant cryAB(R120)
Recombinant cryAB(R120G) protein was diluted to 100 μM in assay buffer (50 mM Tris, 100 mM NaCl, 5 mM DTT, 0.01% Triton X-100, 0.05% PEG-8000). Compounds were dissolved in DMSO at 10 mM then typically diluted to 2.5 mM in DMSO and serially diluted 2-fold as necessary. To a 384-well black microplate in quadruplicate was added 81 μL assay buffer, followed by 15 μL protein solution, and 4 μL compound to give a final concentration of 15 μM cryAB(R120G) protein in 4% DMSO. […] N.D. is not determined.

The inhibition is the relative decrease from the control value, in per cent. For orientation: IC50 means the concentration at which inhibition is half-maximal. Consider `Cn1cc(C(CNS(=O)(=O)c2ccc3cc[nH]c3c2)N2CCCCC2)c2ccccc21` (stereo not shown) [Compound 29, N-(2-(1-methyl-1H-indol-3-yl)-2-(piperidin-1-yl)ethyl)-1H-indole-6-sulfonamide], for which the inhibition at 25 µM is 69%, the inhibition at 100 µM is 99.9% and the IC50 was in the range of 10 to 50 µM.

Take `Cn1cc(C(CNS(=O)(=O)c2ccc3cc[nH]c3c2)N2CCOCC2)c2ccccc21` (stereo not shown) [Compound 30, N-(2-(1-methyl-1H-indol-3-yl)-2-morpholinoethyl)-1H-indole-6-sulfonamide]: the inhibition at 25 µM is -28% and the inhibition at 100 µM was found to be 82%.

`CN(CCO)C(CNS(=O)(=O)c1ccc2cc[nH]c2c1)c1cn(C)c2ccccc12` (stereo not shown) [Compound 32, N-(2-((2-hydroxyethyl)(methyl)amino)-2-(1-methyl-1H-indol-3-yl)ethyl)-1H-indole-6-sulfonamide]: the inhibition at 25 µM worked out at 60%, the inhibition at 100 µM was 98.5% and the IC50 lay in the range of 10 to 50 µM.

Regarding `Cn1ccc2ccc(S(=O)(=O)NCC(c3cn(C)c4ccccc34)N3CCCC3)cc21` (stereo not shown) [Compound 33, 1-methyl-N-(2-(1-methyl-1H-indol-3-yl)-2-(pyrrolidin-1-yl)ethyl)-1H-indole-6-sulfonamide], the inhibition at 25 µM was 27% and the inhibition at 100 µM came to 82.8%.

`CC(=O)N[C@H]1CCN(C(CNS(=O)(=O)c2ccc3cc[nH]c3c2)c2cn(C)c3ccccc23)C1` (stereo partly drawn) [Compound 35, N-((3S)-1-(2-(1H-indole-6-sulfonamido)-1-(1-methyl-1H-indol-3-yl)ethyl)pyrrolidin-3-yl)acetamide]: the inhibition at 25 µM was -19% and the inhibition at 100 µM is 41.7%.

Take `Cn1cc(C(CNS(=O)(=O)c2ccc3cc[nH]c3c2)N2CC[C@H](F)C2)c2ccccc21` (stereo partly drawn) [Compound 36, N-(2-((S)-3-fluoropyrrolidin-1-yl)-2-(1-methyl-1H-indol-3-yl)ethyl)-1H-indole-6-sulfonamide]: the inhibition at 25 µM is 99.7%, the inhibition at 100 µM amounted to 83.9% and the half-maximal inhibitory concentration (IC50) is at most 10 µM.

In the case of `CCN(C)C(CNS(=O)(=O)c1ccc2cc[nH]c2c1)c1cn(C)c2ccccc12` (stereo not shown) [Compound 37, N-(2-(ethyl(methyl)amino)-2-(1-methyl-1H-indol-3-yl)ethyl)-1H-indole-6-sulfonamide], the inhibition at 25 µM stood at 92.8%, the inhibition at 100 µM came to 99.9% and the IC50 was at most 10 µM.

Regarding `CCN(CC)C(CNS(=O)(=O)c1ccc2cc[nH]c2c1)c1cn(C)c2ccccc12` (stereo not shown) [Compound 38, N-(2-(diethylamino)-2-(1-methyl-1H-indol-3-yl)ethyl)-1H-indole-6-sulfonamide], the inhibition at 25 µM worked out at 57%, the inhibition at 100 µM is 99.8% and the IC50 lay in the range of 10 to 50 µM.

As to `CN1CCN(C(CNS(=O)(=O)c2ccc3cc[nH]c3c2)c2cn(C)c3ccccc23)CC1` (stereo not shown) [Compound 39, N-(2-(1-methyl-1H-indol-3-yl)-2-(4-methylpiperazin-1-yl)ethyl)-1H-indole-6-sulfonamide], the inhibition at 25 µM came to 18% and the inhibition at 100 µM was found to be 82.5%.

In the case of `Cn1cc(C(CNS(=O)(=O)c2ccc3cc[nH]c3c2)N2CCC(O)CC2)c2ccccc21` (stereo not shown) [Compound 40, N-(2-(4-hydroxypiperidin-1-yl)-2-(1-methyl-1H-indol-3-yl)ethyl)-1H-indole-6-sulfonamide], the inhibition at 25 µM worked out at 16% and the inhibition at 100 µM was found to be 79.7%.

In the case of `CN(C)C(CNS(=O)(=O)c1ccc2cc[nH]c2c1)c1cn(C)c2ccc(Cl)cc12` (stereo not shown) [Compound 42, N-(2-(5-chloro-1-methyl-1H-indol-3-yl)-2-(dimethylamino)ethyl)-1H-indole-6-sulfonamide], the inhibition at 25 µM came to 91%, the inhibition at 100 µM was determined as 96.2% and the IC50 was at most 10 µM.
